How the values were obtained:
Assay in all cases: biochemical
BIKE = biological target: T1, BIKE (Homo sapiens, UniProt Q9NSY1); design: Thermal shift assay (DSF, SYPRO Orange), 2 uM kinase domain, mean delta Tm of triplicates versus DMSO; conditions: read-out: BIKE
T1 construct: gene BMP2K; catalytic domain-containing construct
Protocol: (§1) All measurements were performed in triplicate and mean values were reported for all compounds (Table S1). […] However, NAKs are often omitted from selectivity panels, including commercial screens.

GAK = biological target: T2, GAK (Homo sapiens, UniProt O14976); design: Thermal shift assay (DSF, SYPRO Orange), 2 uM kinase domain, mean delta Tm of triplicates versus DMSO; conditions: read-out: GAK
T2 construct: catalytic domain-containing construct
T2 sequence (O14976 1-1311): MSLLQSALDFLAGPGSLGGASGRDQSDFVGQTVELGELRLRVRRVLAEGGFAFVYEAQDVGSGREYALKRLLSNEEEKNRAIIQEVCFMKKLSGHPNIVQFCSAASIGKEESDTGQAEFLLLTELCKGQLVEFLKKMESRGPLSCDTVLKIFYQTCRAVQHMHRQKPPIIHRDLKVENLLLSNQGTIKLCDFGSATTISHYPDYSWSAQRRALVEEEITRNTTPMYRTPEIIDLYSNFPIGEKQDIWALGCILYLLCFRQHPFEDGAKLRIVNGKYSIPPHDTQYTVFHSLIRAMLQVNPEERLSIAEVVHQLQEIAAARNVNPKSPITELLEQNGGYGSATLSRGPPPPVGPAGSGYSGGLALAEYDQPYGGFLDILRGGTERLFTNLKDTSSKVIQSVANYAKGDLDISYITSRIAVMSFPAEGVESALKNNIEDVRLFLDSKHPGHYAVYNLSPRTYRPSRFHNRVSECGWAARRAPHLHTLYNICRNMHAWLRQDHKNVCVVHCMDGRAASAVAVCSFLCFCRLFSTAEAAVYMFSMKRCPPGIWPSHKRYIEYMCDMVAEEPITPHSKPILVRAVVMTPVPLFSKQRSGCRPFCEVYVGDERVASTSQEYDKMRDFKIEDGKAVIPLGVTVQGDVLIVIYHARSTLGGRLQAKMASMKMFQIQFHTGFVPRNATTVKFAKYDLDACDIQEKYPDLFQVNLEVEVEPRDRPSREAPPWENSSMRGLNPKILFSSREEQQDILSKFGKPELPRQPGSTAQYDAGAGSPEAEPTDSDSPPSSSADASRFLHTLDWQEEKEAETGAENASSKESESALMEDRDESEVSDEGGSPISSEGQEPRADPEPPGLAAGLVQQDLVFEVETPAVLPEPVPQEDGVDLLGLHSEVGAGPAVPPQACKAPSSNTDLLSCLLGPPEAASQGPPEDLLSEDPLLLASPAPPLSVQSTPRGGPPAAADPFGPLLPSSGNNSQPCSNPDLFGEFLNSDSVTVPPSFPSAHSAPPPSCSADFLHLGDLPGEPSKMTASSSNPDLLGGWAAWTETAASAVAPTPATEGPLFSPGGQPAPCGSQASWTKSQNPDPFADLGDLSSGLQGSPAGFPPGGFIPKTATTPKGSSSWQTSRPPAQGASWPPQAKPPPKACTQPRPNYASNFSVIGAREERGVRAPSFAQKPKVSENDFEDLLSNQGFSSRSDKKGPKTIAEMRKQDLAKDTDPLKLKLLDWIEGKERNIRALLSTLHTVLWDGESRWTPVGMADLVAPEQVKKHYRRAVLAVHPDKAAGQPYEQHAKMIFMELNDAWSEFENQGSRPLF
Protocol: as §1

MPSK1 = biological target: T3, MPSK1 (Homo sapiens, UniProt O75716); design: Thermal shift assay (DSF, SYPRO Orange), 2 uM kinase domain, mean delta Tm of triplicates versus DMSO; conditions: read-out: MPSK1
T3 construct: gene STK16; catalytic domain-containing construct
Protocol: as §1

AAK1 = AAK1 (Homo sapiens, UniProt Q2M2I8); design: kinase domain; Thermal shift assay (DSF, SYPRO Orange), 2 uM kinase domain, mean delta Tm of triplicates versus DMSO; conditions: read-out: AAK1
Protocol: as §1

AAK1, sequence (Q2M2I8 27-365 limits assumed): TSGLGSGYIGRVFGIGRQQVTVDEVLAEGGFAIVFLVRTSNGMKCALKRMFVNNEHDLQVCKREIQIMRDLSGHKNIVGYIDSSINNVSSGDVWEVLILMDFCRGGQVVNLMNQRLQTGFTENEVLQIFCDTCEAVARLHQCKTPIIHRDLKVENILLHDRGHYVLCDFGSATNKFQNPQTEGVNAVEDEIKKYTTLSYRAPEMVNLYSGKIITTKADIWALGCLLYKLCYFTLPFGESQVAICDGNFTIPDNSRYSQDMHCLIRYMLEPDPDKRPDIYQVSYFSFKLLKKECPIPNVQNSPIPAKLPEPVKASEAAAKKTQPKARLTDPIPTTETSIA
T1 sequence (Q9NSY1 whole entry, the tested form may be a part): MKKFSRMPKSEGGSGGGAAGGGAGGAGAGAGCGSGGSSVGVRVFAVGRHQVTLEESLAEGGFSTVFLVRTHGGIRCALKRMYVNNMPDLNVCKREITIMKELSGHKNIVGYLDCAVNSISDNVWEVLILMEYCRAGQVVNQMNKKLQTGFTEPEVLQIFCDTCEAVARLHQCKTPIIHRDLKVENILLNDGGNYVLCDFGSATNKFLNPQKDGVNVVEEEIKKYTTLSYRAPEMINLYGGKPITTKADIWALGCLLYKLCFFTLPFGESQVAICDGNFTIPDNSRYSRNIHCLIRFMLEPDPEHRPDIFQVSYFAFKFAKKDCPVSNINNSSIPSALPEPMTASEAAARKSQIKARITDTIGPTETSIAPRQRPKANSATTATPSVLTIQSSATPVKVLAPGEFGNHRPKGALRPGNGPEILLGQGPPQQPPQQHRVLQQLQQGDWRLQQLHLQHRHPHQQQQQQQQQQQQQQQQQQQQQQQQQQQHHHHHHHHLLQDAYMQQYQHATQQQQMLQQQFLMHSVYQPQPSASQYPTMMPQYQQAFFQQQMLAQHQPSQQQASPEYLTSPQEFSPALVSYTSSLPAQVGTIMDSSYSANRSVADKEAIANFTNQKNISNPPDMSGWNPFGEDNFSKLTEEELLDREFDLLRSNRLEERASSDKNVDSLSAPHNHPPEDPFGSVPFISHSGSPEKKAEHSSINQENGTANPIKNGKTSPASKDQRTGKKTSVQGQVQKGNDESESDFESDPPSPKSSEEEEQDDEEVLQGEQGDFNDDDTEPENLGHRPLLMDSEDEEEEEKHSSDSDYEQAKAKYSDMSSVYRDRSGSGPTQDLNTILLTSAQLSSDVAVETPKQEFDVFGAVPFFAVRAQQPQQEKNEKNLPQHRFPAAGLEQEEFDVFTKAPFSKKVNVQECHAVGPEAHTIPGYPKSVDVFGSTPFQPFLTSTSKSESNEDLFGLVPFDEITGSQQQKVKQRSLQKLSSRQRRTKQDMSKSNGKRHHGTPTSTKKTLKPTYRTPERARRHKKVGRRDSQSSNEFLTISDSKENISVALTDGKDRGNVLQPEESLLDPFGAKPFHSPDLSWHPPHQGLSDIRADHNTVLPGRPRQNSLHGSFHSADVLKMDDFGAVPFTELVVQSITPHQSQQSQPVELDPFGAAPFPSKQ
T3 sequence (O75716 whole entry, the tested form may be a part): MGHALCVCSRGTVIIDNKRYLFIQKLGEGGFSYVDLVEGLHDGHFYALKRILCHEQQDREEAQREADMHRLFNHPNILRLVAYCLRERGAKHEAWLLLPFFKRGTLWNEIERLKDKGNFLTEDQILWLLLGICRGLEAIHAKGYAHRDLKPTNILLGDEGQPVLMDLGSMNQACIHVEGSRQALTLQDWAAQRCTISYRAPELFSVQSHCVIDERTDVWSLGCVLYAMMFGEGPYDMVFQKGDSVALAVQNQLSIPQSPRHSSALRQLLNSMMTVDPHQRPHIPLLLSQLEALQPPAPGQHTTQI

| SMILES | ΔTm at 12.5 µM (BIKE) [°C] | ΔTm at 12.5 µM (GAK) [°C] | ΔTm at 12.5 µM (MPSK1) [°C] | ΔTm at 12.5 µM (AAK1) [°C] |
| --- | --- | --- | --- | --- |
| CCn1c(=O)c(-c2cc[nH]n2)cc2c(C)nc(N)nc21 [Voxtalisib] | 0.73 | 0.99 | 0.32 | 0.657 |
| CC(=O)Nc1cccc(-n2c(=O)n(C3CC3)c(=O)c3c(Nc4ccc(I)cc4F)n(C)c(=O)c(C)c32)c1 [Trametinib] | 0.423 | -0.66 | 0.827 | 0.367 |
| NC1(c2ccc(-c3nc4ccn5c(=O)[nH]nc5c4cc3-c3ccccc3)cc2)CCC1 [MK-2206] | 0.637 | -0.83 | 1.1 | 1.1 |
| CNC(=O)c1cc(Oc2ccc(NC(=O)Nc3ccc(Cl)c(C(F)(F)F)c3)c(F)c2)ccn1 [Regorafenib] | 0.423 | 5.87 | 0.88 | 1.02 |
| Nc1nccc(-c2c(-c3ccc(F)cc3)ncn2C2CCCCC2)n1 [PF-670462] | 1.04 | 6.13 | 1.83 | 1.68 |
| CN1CCN(c2ccc3nc(-c4c(N)c5c(F)cccc5[nH]c4=O)[nH]c3c2)CC1 [Dovitinib] | 0.12 | -0.0367 | 0.593 | 0.263 |
| Cc1c(Cn2c(C)nc3c(C(=O)O)cc(N4CCOCC4)cc32)cccc1C(F)(F)F [GSK2636771] | 0.39 | -0.483 | 0.763 | 0.317 |
| O=C(Nc1c[nH]nc1-c1nc2ccc(CN3CCOCC3)cc2[nH]1)NC1CC1 [AT9283] | 15.6 | 4.52 | 9.49 | 12.1 |
| CNC(=O)c1c(F)cccc1Nc1nc(Nc2cc3c(ccn3C(=O)CN(C)C)cc2OC)nc2[nH]ccc12 [GSK1838705A] | 0.543 | 0.74 | 1.27 | 0.143 |
| Cn1cc(-c2[nH]c3cc(NC(=O)[C@H](N)C4CCCCC4)cc4c3c2C=NNC4=O)cn1 [PF-00477736] | 19.1 | 9.49 | 6.45 | 17.8 |
| COc1cccc2cc(-c3nc([C@H]4CC[C@H](C(=O)O)CC4)n4ncnc(N)c34)[nH]c12 [OSI-027] | 0.31 | -0.547 | 0.92 | 0.0767 |
| CCS(=O)(=O)c1cccc(-c2cc(C(=O)NC3CCN(C)CC3)c(C)c3[nH]c4ncc(C)cc4c23)c1 [TAK-901] | 12 | 3.35 | 10.7 | 5.22 |
| COc1cc2c(Oc3ccc(NC(=O)C4(C(=O)Nc5ccc(F)cc5)CC4)cc3F)ccnc2cc1OCCCN1CCOCC1 [Foretinib] | 1.32 | 2.36 | 1.87 | 1.13 |
| COc1ccc(Cl)c(Nc2nc3ccccc3nc2NS(=O)(=O)c2cccc(NC(=O)C(C)(C)N)c2)c1 [Pilaralisib] | 0.99 | -0.55 | 0.39 | 0.00667 |
| COc1cc(N2CCC(N3CCN(C)CC3)CC2)ccc1Nc1ncc(Cl)c(Nc2ccccc2P(C)(C)=O)n1 [AP26113] | 8.42 | 9.03 | 2.75 | 7.77 |
| CC(C)Oc1cc(Nc2nc(N[C@@H](C)c3ccc(F)cn3)ncc2Cl)n[nH]1 [AZ23] | 3.37 | 3.09 | 3.4 | 1.65 |
| CC[C@H](CO)Nc1nc(NCc2ccccc2)c2ncn(C(C)C)c2n1 [Seliciclib] | 0.43 | -0.34 | 2.4 | 0.393 |

Reference: PMC4780864, “Family-wide Structural Analysis of Human Numb-Associated Protein Kinases” (Structure(London, England:1993), 2016)
